Measurements: patent US6835382B2, “Ii peptide therapeutics to enhance antigen presentation” (University of Massachusetts, priority 1996, dated 2004)
No end group written: not given here.

What was measured:
[1] = molecular target: T1, HLA-DR1 molecules (Homo sapiens, UniProt P01903+P01911, A100R/D57E/F55L/F60I/F76Y/I96L/L162R/M171V/P40L/Q125E/R42F/V115G/Y59C); assay: binding of biotin-labeled hMBP(90-102) to "empty" HLA-DR1 (assay IV); settings: Table 39; AE101 series compound 64 μM; biotin-labeled hMBP(90-102) 50 μM, 37° C., 1 h; no enhancement = 1
T1 construct: The HLA-DR alpha gene was truncated after Asn^192 to remove transmembranal and cytoplasmic regions from the protein product; A gene coding for the HLA-DR1 beta chain was truncated after position Lys^198, again to delete the transmembranal region; made in house; host or cells: insect cell line printed as HS / H5 (Invitrogen), co-infected with two baculoviruses; concentrated culture supernatant captured on 12CA5 antibody

[2] = tested on: HLA-DR1 molecules; assay: release of biotin-labeled hMBP(90-102) from HLA-DR1 in the presence of unlabeled hMBP (assay II); format: binding, human; settings: Table 37, unlabeled hMBP(90-102) 250 μM

For “cyclic LRMKLPK (bridge (positions not given here); also: cyclic, ring type not given here) [AE381, “head-to-tail” cyclization from the amino-terminus to the carboxyl-terminus of AE114]”, which “Relative Enhancement” value [1] is on record?
Its value is 1.84.

What about the “Relative Release, With unlabeled hMBP(90-102), 1 μM” value ([2]; AE101 series compound 1 μM) of the same substance?
Its value is 0.09.

What about the “Relative Release, With unlabeled hMBP(90-102), 64 μM” value ([2]; AE101 series compound 64 μM) of the same substance?
The value was −0.19.
